This note sets out measurements from publication PMC12040169 (PLOS Biology, 2025).

A short description of the data set: in vitro. The following applies: human, hela cells, % viability.

On to `Cc1cc(C(=O)CSc2nc(=O)cc(O)n2CC(C)C)c(C)n1C` [CBK295649], for which the viability at 28.5 h, 10 µM stood at 85.4%.

On to `COc1ccc(-c2nn(CCC(=O)O)cc2/C=C2\SC(=S)NC2=O)cc1OC` [CBK265318], for which the viability at 28.5 h, 10 µM came to 108%. The same measure for `COc1ccccc1-c1ccc(C(=O)N(C)CCN(C)C)c(N(C)C)n1` [CBK106075]: 88.5%; for `COC(=O)c1cccc(CCC2CC(=O)C=C(O)C2)c1` (centres unmarked) [CBK012720]: 93.7%; for `CC(C)n1c(=O)n(CC(=O)NC2CCCC2)c2cccnc21` [CBK283700]: 89.2%. The same measure for `CCOc1cccc(CNc2ccc(O)cc2)c1OCc1ccc(Cl)cc1Cl` [CBK074528]: 106%; for `N#Cc1ccnc(N2CCC3(CCCN(CC4CCCCC4)C3=O)C2)c1` (centres unmarked) [CBK306561]: 96.9%; for `CCOC(=O)C(C)n1nc(CC)n2c(cc3sc(C)cc32)c1=O` (centres unmarked) [CBK284123]: 86%. Next, `OC(COc1ccc2c(c1)OCO2)CN1CCN(C(c2ccccc2)c2ccccc2)CC1` (centres unmarked) [CBK074854C]: 87.5%. In the case of `CN(C)S(=O)(=O)c1cccc(-c2cn3cccnc3n2)c1` [CBK267580], the viability at 28.5 h, 10 µM amounted to 71.4%.

Take `CC1CCCN(C(=O)N(C)C)C1` (centres unmarked) [CBK023175]: the viability at 28.5 h, 10 µM worked out at 118%. Next, `COc1ccccc1N1CCN(C(=O)NCc2cnc(C)cn2)CC1` [CBK155367]: 105%. Next, `O=C1NCCNC(=O)C2(C/C=C/COc3ccccc31)CCN(C(=O)CCN1CCCCC1)CC2` [CBK292026]: 110%; `O=C(O)C1(Cc2cccc(-c3cccs3)c2)CCCNC1` (centres unmarked) [CBK281688]: 90.5%.

Take `CC(=O)N1C[C@@H](c2cccc(C)c2)[C@@H]2CN(CC3CC3)CC[C@@H]21` [CBK283372]: the viability at 28.5 h, 10 µM was found to be 103%. Next, `COCCOc1ncccc1OCc1ccccc1` [CBK001456]: 92.9%; `CC(C)N1C(=O)[C@@H]2CN(C(=O)C3CCCC3)CCN2C1=O` [CBK289612]: 88.8%; `O=S(=O)(Nc1ccc(C(O)(C(F)(F)F)C(F)(F)F)cc1)c1ccc(N2CCOCC2)nc1` [CBK062100]: 94.9%.

As to `O=C(O)c1ccc(NC2OC(CO)C(O)C2O)cc1` (centres unmarked) [CBK218836], the viability at 28.5 h, 10 µM was determined as 95.9%. The same measure for `O=c1[nH]c(=O)c2cc(S(=O)(=O)NCC3(N4CCOCC4)CCCCC3)ccc2[nH]1` [CBK286390]: 105%; for `O=C(OCc1ccccc1)N1CCC(C2OCc3ccc(-c4ccc(Cl)c(Cl)c4)cc3O2)CC1` (centres unmarked) [CBK144646]: 109%. In the case of `CCCOC1CCCN(C(=O)c2cncc(F)c2)C1` (centres unmarked) [CBK304623], the viability at 28.5 h, 10 µM was found to be 95%. The same measure for `O=C(c1ccccc1)C1(CO)COCc2nccn21` (centres unmarked) [CBK009980]: 88.7%; for `O=C(CCSc1nc(-c2ccco2)cc(C(F)(F)F)n1)N1CCN(c2ccccn2)CC1` [CBK267626]: 99%; for `O=C(Cc1ccc(Cl)c(Cl)c1)N1CCC2(CCN(C(=O)Cc3c[nH]c4ccccc34)C2)C1` (centres unmarked) [CBK131426]: 106%. Next, `Cc1nnc(CSc2nnc(-c3ccc(Cl)cc3)[nH]2)o1` [CBK270241]: 102%. The same measure for `CS(=O)(=O)N1CC2(CCN(CC(N)=O)CC2)c2ccccc21` [CBK126678]: 81.5%. On to `COc1ccc(/C=C/c2nc3ccccc3s2)cc1S(=O)(=O)N1CCOCC1` [CBK269373], for which the viability at 28.5 h, 10 µM came to 89.9%. Next, `CO/N=C(/C(=O)O)c1cn2cc(Br)ccc2n1` [CBK260925G]: 87.2%; `O=C(C1CCCCC1)N1CCC(n2c(=O)oc3ccccc32)CC1` [CBK284348]: 97.2%; `Cn1ccc(C2CCCCCN2C(=O)c2cc(C3CC3)on2)n1` (centres unmarked) [CBK283050]: 104%. The same measure for `CC(Cn1cccn1)C(=O)N1CCc2sccc2C1C` (centres unmarked) [CBK282074]: 103%; for `O=C(CCC1CCCO1)NC(Cc1ccsc1)c1cccnc1` (centres unmarked) [CBK285159]: 87.6%; for `CC(=O)Nc1ccc(S(=O)(=O)Nc2nnc(CC(C)(C)C)s2)cc1` [CBK049910]: 87.7%. The same measure for `O=C(c1ccccc1)N1CCc2[nH]nc(-c3ccccc3)c2C1` [CBK287904]: 92.5%; for `O=S(=O)(Cc1ccccc1)Nc1nccnc1-c1cccs1` [CBK050766]: 91.3%.

Consider `Nc1ccc2c(-c3cc(F)cc(F)c3)ccnc2n1` [CBK067638], for which the viability at 28.5 h, 10 µM came out at 93.4%. Regarding `CCOC(=O)C1CCN(C(=O)c2c(-c3ccccc3)noc2C)CC1` [CBK158704], the viability at 28.5 h, 10 µM is 86.3%.

Turning to `CCOc1ccccc1N(CC(=O)O)S(=O)(=O)c1ccc(Cl)cc1` [CBK287144], the viability at 28.5 h, 10 µM amounted to 110%. The same measure for `COc1cc2c(cc1OC)C1(CCOCC1)CNC2CC(c1ccccc1)c1ccccc1` (centres unmarked) [CBK014382]: 91.4%. The same measure for `O=C1c2ccccc2CN1c1cccc(Cl)c1Cl` [CBK109916]: 82.3%. With `O=C(O)c1cccc(NS(=O)(=O)c2c(Cl)cc(C(F)(F)F)cc2Cl)c1` [CBK155721], the viability at 28.5 h, 10 µM is 96.3%. For `Cc1ccc(-c2csc(CC#N)n2)cc1` [CBK047576], the viability at 28.5 h, 10 µM stood at 79.3%. The same measure for `COC(=O)c1cc(-c2ccccc2)sc1NC(=O)CSc1ncnc2sc3c(c12)CCC3` [CBK265978]: 97.4%.

In the case of `Cc1nc2c(c(=O)[nH]1)CCN(CCC(C)c1ccccc1)C2` (centres unmarked) [CBK282387], the viability at 28.5 h, 10 µM stood at 81%. Turning to `COc1ccc(NS(=O)(=O)c2ccc(C)cc2)cn1` [CBK010484], the viability at 28.5 h, 10 µM came to 85.8%. Next, `O=C1N[C@@H]2CCN(C(=O)C3CC3)[C@@H]2C(=O)N1c1ccc(F)cc1` [CBK289324]: 99.6%; `O=C(c1ccc2[nH]ccc2c1)N1CCc2ccccc21` [CBK200269]: 101%. Next, `O=C(O)C1C2C=CC(O2)C1C(=O)NCC1CCCO1` (centres unmarked) [CBK286917]: 92.7%; `Cc1ccc(Cc2nc(-c3cccnc3)no2)cc1` [CBK288141]: 94.3%; `O=C(COc1ccc(F)cc1)N1CCCC1c1cccc(Cc2ccccc2)n1` (centres unmarked) [CBK286214]: 105%. `CC(CC(=O)N1CCC(c2cc3cccnc3[nH]2)CC1)n1ccnc1` (centres unmarked) [CBK285028]: the viability at 28.5 h, 10 µM is 107%. With `COc1cc(CN(C)Cc2cccc3ccccc23)c([N+](=O)[O-])cc1OC` [CBK261850], the viability at 28.5 h, 10 µM amounted to 89.3%. The same measure for `COc1cccc(OC)c1-c1cn2ccnc2c(N[C@H](CO)C(C)C)n1` [CBK036586]: 99.5%; for `CS(=O)(=O)Nc1nnc(C2CCCCC2)s1` [CBK069540]: 95.6%; for `Cc1[nH]nc(Nc2ccc(I)cc2)c1[N+](=O)[O-]` [CBK262748]: 86.2%. Next, `CN1CCC(N[C@H]2C[C@@H](Cc3cc(CCO)on3)C2(C)C)CC1` [CBK289253]: 93.6%; `CCCc1[nH]nc(O)c1Cc1ccc(C(F)(F)F)cc1` [CBK075014]: 88.9%. Next, `O=C(O)C1CC(=O)N(Cc2ccccc2)C1c1ccccc1` (centres unmarked) [CBK286876]: 89.1%; `O=C(CSc1ccccc1)Nc1cc(Cl)ccc1O` [CBK265837]: 109%.

As to `COc1ccc(Cn2nc(NC(=O)OC(C)C)c3ccccc32)cc1` [CBK048404], the viability at 28.5 h, 10 µM was determined as 106%. Next, `CC(=O)N[C@H]1C[C@@H](Cc2cc(CCO)on2)C1(C)C` [CBK289243]: 99.7%; `CN(C)CCCN(Cc1ccc2ncccc2c1)Cc1ccco1` [CBK283197]: 112%; `CC(C)C(=O)N1CC2(CCN(Cc3ccc(C(C)C)cc3)CC2)c2ccccc21` [CBK122702]: 98.8%. Next, `CC(C)OCC(O)Cn1c(N/N=C/c2ccccc2O)nc2c1c(=O)[nH]c(=O)n2C` (centres unmarked) [CBK139853]: 101%. The same measure for `COC(=O)Cc1c(O)nn(C)c1Cc1cccc(C(F)(F)F)c1` [CBK006608]: 99.5%. Regarding `C=CCn1ncc(CN(C)Cc2nc3ccccc3[nH]2)c1C` [CBK283169], the viability at 28.5 h, 10 µM was 96%. The same measure for `Cc1ccc(NC(=O)CSc2nnc(C(O)c3ccccc3)n2-c2ccccc2)c(Br)c1` (centres unmarked) [CBK267421]: 89.8%; for `CC(C)(C)c1cc(C(=O)N/N=C/c2ccc(O)c([N+](=O)[O-])c2)[nH]n1` [CBK263844]: 98.4%; for `COc1cc(C=C2C(=O)OC(C)(C(C)(C)C)OC2=O)cc(Br)c1OC` (centres unmarked) [CBK028893]: 96.5%. With `Nc1cccc(-c2cc(N3CCCC3CO)n3nccc3n2)c1` (centres unmarked) [CBK037049], the viability at 28.5 h, 10 µM amounted to 88.6%. Next, `Cc1cc(F)ccc1S(=O)(=O)N1CCC2(CC1)CNC(=O)C2` [CBK283354]: 104%; `CO[C@@H]1CO[C@H]2[C@@H]1OC[C@@H]2NC(=O)Nc1ccc(C(C)=O)cc1` [CBK289462]: 106%; `O=[N+]([O-])c1cc(S(=O)(=O)Nc2nnc(C(F)(F)F)s2)ccc1Cl` [CBK062021]: 105%.

In the case of `O=C(c1cccc2[nH]ccc12)N1CCN(CCc2ccccc2)CC1` [CBK200203], the viability at 28.5 h, 10 µM was 104%. The same measure for `CNC(=O)C(NC(=S)NC(=O)c1ccc(F)cc1)C(C)(C)C` (centres unmarked) [CBK021945]: 109%; for `CC(C)n1cnnc1CN1CCN(c2ccc(C#N)cc2)CC1` [CBK307714]: 106%; for `CCSc1nnc2c(n1)OC(C1CC=C(C)CC1)Nc1ccccc1-2` (centres unmarked) [CBK262367]: 95.5%. Next, `Cc1ccc(CN(CCCN(C)C)Cc2nc(C)n3ccccc23)o1` [CBK282482]: 106%; `CCCS(=O)(=O)N1CCN(Cc2cc(Br)ccc2O)CC1` [CBK264165G]: 102%.
